Measurements reported in PubChem BioAssay (NCI).
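Method: 48-hour compound exposure of cells in 96-well plates, five concentrations, linear interpolation of endpoints. Abbreviation: GI50, concentration required for 50% inhibition of growth. Definition used: TGI = concentration required for complete inhibition of growth.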

Key:
Test in all cases: NCI tumour cell line growth inhibition, 48 h
M14 melanoma = system: M14 melanoma
SF-295 CNS = system: SF-295 CNS
BT-549 breast = system: BT-549 breast
SN12C renal = system: SN12C renal
K-562 leukemia = system: K-562 leukemia
MOLT-4 leukemia = system: MOLT-4 leukemia
NCI-H226 lung = system: NCI-H226 lung
DU-145 prostate = system: DU-145 prostate
HCC-2998 colon = system: HCC-2998 colon
HT29 colon = system: HT29 colon
UACC-257 melanoma = system: UACC-257 melanoma
A498 renal = system: A498 renal
HCT-116 colon = system: HCT-116 colon
NCI-H522 lung = system: NCI-H522 lung
CAKI-1 renal = system: CAKI-1 renal
OVCAR-5 ovarian = system: OVCAR-5 ovarian
MCF7 breast = system: MCF7 breast
SF-268 CNS = system: SF-268 CNS
PC-3 prostate = system: PC-3 prostate
SF-539 CNS = system: SF-539 CNS
KM12 colon = system: KM12 colon
TK-10 renal = system: TK-10 renal
T-47D breast = system: T-47D breast
MALME-3M melanoma = system: MALME-3M melanoma
HL-60(TB) leukemia = system: HL-60(TB) leukemia
COLO 205 colon = system: COLO 205 colon
MDA-MB-435 = system: MDA-MB-435
UO-31 renal = system: UO-31 renal
SK-MEL-28 melanoma = system: SK-MEL-28 melanoma
SNB-19 CNS = system: SNB-19 CNS
HOP-92 NSCLC = system: HOP-92 NSCLC
EKVX NSCLC = system: EKVX NSCLC
SK-OV-3 ovarian = system: SK-OV-3 ovarian
HCT-15 colon = system: HCT-15 colon
NCI-H460 lung = system: NCI-H460 lung
OVCAR-3 ovarian = system: OVCAR-3 ovarian
ACHN renal = system: ACHN renal
HOP-62 NSCLC = system: HOP-62 NSCLC
SNB-75 CNS = system: SNB-75 CNS
MDA-MB-231 breast = system: MDA-MB-231 breast
SR leukemia = system: SR leukemia
UACC-62 melanoma = system: UACC-62 melanoma
RXF 393 renal = system: RXF 393 renal
SK-MEL-5 melanoma = system: SK-MEL-5 melanoma
SW-620 colon = system: SW-620 colon
786-0 renal = system: 786-0 renal
CCRF-CEM leukemia = system: CCRF-CEM leukemia
A549 NSCLC = system: A549 NSCLC
LOX IMVI melanoma = system: LOX IMVI melanoma
IGROV1 ovarian = system: IGROV1 ovarian
NCI-H23 lung = system: NCI-H23 lung
HS 578T breast = system: HS 578T breast
NCI/ADR-RES ovarian = system: NCI/ADR-RES ovarian
OVCAR-4 ovarian = system: OVCAR-4 ovarian
SK-MEL-2 melanoma = system: SK-MEL-2 melanoma
RPMI-8226 leukemia = system: RPMI-8226 leukemia
OVCAR-8 ovarian = system: OVCAR-8 ovarian
U251 CNS = system: U251 CNS

## O=C1c2[nH]cc(CN3CCNCC3)c2C(=O)c2c1c(O)c1ccccc1c2O
M14 melanoma
  GI50: 1.53 µM
  TGI: 3.23 µM
SF-295 CNS
  GI50: 1.74 µM
  TGI: 3.37 µM
BT-549 breast
  GI50: 4.86 µM
  TGI: 20.3 µM
SN12C renal
  GI50: 1.78 µM
  TGI: 5.15 µM
K-562 leukemia
  GI50: 3.42 µM
  TGI: > 100 µM
MOLT-4 leukemia
  GI50: 3.08 µM
  TGI: > 20 µM
NCI-H226 lung
  GI50: 12.2 µM
  TGI: 40.7 µM
DU-145 prostate
  GI50: 1.67 µM
  TGI: 3.06 µM
HCC-2998 colon
  GI50: 1.18 µM
  TGI: 2.88 µM
HT29 colon
  GI50: 2.44 µM
  TGI: > 100 µM
UACC-257 melanoma
  GI50: 4.47 µM
A498 renal
  GI50: 1.01 µM
  TGI: 2.38 µM
HCT-116 colon
  GI50: 1.07 µM
  TGI: 2.25 µM
NCI-H522 lung
  GI50: 1.76 µM
  TGI: 3.65 µM
CAKI-1 renal
  GI50: 2.21 µM
  TGI: 5.94 µM
OVCAR-5 ovarian
  GI50: 1.86 µM
  TGI: 4.13 µM
MCF7 breast
  GI50: 32.9 µM
  TGI: > 100 µM
SF-268 CNS
  GI50: 22.9 µM
  TGI: 66.4 µM
PC-3 prostate
  GI50: 1.83 µM
  TGI: 4.41 µM
SF-539 CNS
  GI50: 1.85 µM
  TGI: 3.31 µM
KM12 colon
  GI50: 20.9 µM
  TGI: 53 µM
TK-10 renal
  GI50: 6.5 µM
  TGI: 12.2 µM
T-47D breast
  GI50: 13.8 µM
  TGI: 34.4 µM
MALME-3M melanoma
  GI50: 6.3 µM
  TGI: 13.3 µM
HL-60(TB) leukemia
  GI50: 22 µM
  TGI: > 100 µM
COLO 205 colon
  GI50: 1.59 µM
  TGI: 3.39 µM
MDA-MB-435
  GI50: 2.54 µM
  TGI: 4.59 µM
UO-31 renal
  GI50: 1.7 µM
  TGI: 5.96 µM
SK-MEL-28 melanoma
  GI50: 1.62 µM
  TGI: 3.6 µM
SNB-19 CNS
  GI50: 2.22 µM
  TGI: 6 µM
HOP-92 NSCLC
  GI50: 3.05 µM
  TGI: 13.1 µM
EKVX NSCLC
  GI50: 0.769 µM
  TGI: 2.49 µM
SK-OV-3 ovarian
  GI50: 5.76 µM
  TGI: 27.7 µM
HCT-15 colon
  GI50: 1.31 µM
  TGI: 2.7 µM
NCI-H460 lung
  GI50: 18.5 µM
  TGI: > 78.3 µM
OVCAR-3 ovarian
  GI50: 1.77 µM
  TGI: 4.05 µM
ACHN renal
  GI50: 1.57 µM
  TGI: 3.37 µM
HOP-62 NSCLC
  TGI: 1.14 µM
SNB-75 CNS
  GI50: 15.4 µM
  TGI: 37.8 µM
MDA-MB-231 breast
  GI50: 1.51 µM
  TGI: 3.18 µM
SR leukemia
  GI50: 6.09 µM
  TGI: > 100 µM
UACC-62 melanoma
  GI50: 1.71 µM
  TGI: 3.28 µM
RXF 393 renal
  GI50: 23.9 µM
  TGI: 71.2 µM
SK-MEL-5 melanoma
  GI50: 1.64 µM
  TGI: 3.14 µM

## CN(C)[C@@H]1C(=O)C(C(N)=O)=C(O)[C@@]2(O)C(=O)C3=C(O)c4c(O)cc(CN5CCc6ccccc6C5)c(Cl)c4C[C@H]3C[C@@H]12
M14 melanoma
  GI50: 1.61 µM
  TGI: 3.03 µM
DU-145 prostate
  GI50: 1.64 µM
  TGI: 3.04 µM
A498 renal
  GI50: 1.76 µM
  TGI: 3.29 µM
SW-620 colon
  GI50: 1.92 µM
  TGI: 3.6 µM
HCT-116 colon
  GI50: 1.6 µM
  TGI: 2.97 µM
OVCAR-5 ovarian
  GI50: 1.62 µM
  TGI: 3.02 µM
786-0 renal
  GI50: 1.76 µM
  TGI: 3.3 µM
SK-OV-3 ovarian
  GI50: 1.73 µM
  TGI: 3.18 µM
HCT-15 colon
  GI50: 0.0531 µM
  TGI: 2.36 µM
NCI-H460 lung
  GI50: 1.79 µM
  TGI: 3.4 µM

## COc1ccc(/C(C)=C(\c2ccc(Cl)cc2)c2ccc(OCCN3CCCC3)cc2)cc1
M14 melanoma
  GI50: 0.752 µM
  TGI: 1.95 µM
SF-295 CNS
  GI50: 3.23 µM
  TGI: 7.25 µM
BT-549 breast
  GI50: 3.82 µM
  TGI: 8.09 µM
SN12C renal
  GI50: 4.9 µM
  TGI: 9.63 µM
CCRF-CEM leukemia
  GI50: 3.79 µM
  TGI: 11.4 µM
K-562 leukemia
  GI50: 1.25 µM
  TGI: 7.23 µM
A549 NSCLC
  GI50: 3.97 µM
  TGI: 8.43 µM
LOX IMVI melanoma
  GI50: 1.51 µM
  TGI: 5.84 µM
MOLT-4 leukemia
  GI50: 3.88 µM
  TGI: 10.9 µM
IGROV1 ovarian
  GI50: 4.13 µM
  TGI: 8.91 µM
NCI-H226 lung
  GI50: 5.54 µM
  TGI: 11.6 µM
NCI-H23 lung
  GI50: 4.29 µM
  TGI: 8.98 µM
DU-145 prostate
  GI50: 4.89 µM
  TGI: 9.4 µM
HCC-2998 colon
  GI50: 3.06 µM
  TGI: 7.41 µM
HT29 colon
  GI50: 1.15 µM
  TGI: 4.08 µM
UACC-257 melanoma
  GI50: 4.6 µM
  TGI: 9.24 µM
A498 renal
  GI50: 4.02 µM
  TGI: 8.38 µM
SW-620 colon
  GI50: 3.04 µM
  TGI: 7.33 µM
HCT-116 colon
  GI50: 1.55 µM
  TGI: 5.78 µM
NCI-H522 lung
  GI50: 4.39 µM
  TGI: 9.11 µM
CAKI-1 renal
  GI50: 4.85 µM
  TGI: 9.29 µM
HS 578T breast
  GI50: 4.71 µM
  TGI: 11.8 µM
OVCAR-5 ovarian
  GI50: 4.32 µM
  TGI: 8.65 µM
MCF7 breast
  GI50: 0.887 µM
  TGI: 5.83 µM
SF-268 CNS
  GI50: 4.73 µM
  TGI: 9.79 µM
PC-3 prostate
  GI50: 3.39 µM
  TGI: 7.52 µM
NCI/ADR-RES ovarian
  GI50: 4.54 µM
  TGI: 9.36 µM
786-0 renal
  GI50: 2.43 µM
  TGI: 6.85 µM
SF-539 CNS
  GI50: 4.32 µM
  TGI: 8.59 µM
KM12 colon
  GI50: 1.98 µM
  TGI: 6.6 µM
TK-10 renal
  GI50: 5.49 µM
  TGI: 10.4 µM
MALME-3M melanoma
  GI50: 2.72 µM
  TGI: 7.61 µM
OVCAR-4 ovarian
  GI50: 3.61 µM
  TGI: 7.64 µM
HL-60(TB) leukemia
  GI50: 4.57 µM
  TGI: 10.9 µM
COLO 205 colon
  GI50: 3.57 µM
  TGI: 7.74 µM
MDA-MB-435
  GI50: 1.84 µM
  TGI: 6.14 µM
SK-MEL-2 melanoma
  GI50: 6.45 µM
  TGI: 11.6 µM
RPMI-8226 leukemia
  GI50: 3.66 µM
  TGI: 10 µM
UO-31 renal
  GI50: 2.88 µM
  TGI: 7.12 µM
SK-MEL-28 melanoma
  GI50: 3.52 µM
  TGI: 7.54 µM
SNB-19 CNS
  GI50: 4.54 µM
  TGI: 9.09 µM
HOP-92 NSCLC
  GI50: 4.17 µM
  TGI: 8.7 µM
EKVX NSCLC
  GI50: 2.97 µM
  TGI: 7.3 µM
SK-OV-3 ovarian
  GI50: 6.03 µM
  TGI: 10.7 µM
HCT-15 colon
  GI50: 1.09 µM
  TGI: 4.35 µM
NCI-H460 lung
  GI50: 3.36 µM
  TGI: 7.46 µM
OVCAR-3 ovarian
  GI50: 5.16 µM
  TGI: 9.79 µM
ACHN renal
  GI50: 5.1 µM
  TGI: 9.62 µM
OVCAR-8 ovarian
  GI50: 5.2 µM
  TGI: 10.2 µM
HOP-62 NSCLC
  GI50: 4.68 µM
  TGI: 9.03 µM
SNB-75 CNS
  GI50: 4.29 µM
  TGI: 8.58 µM
MDA-MB-231 breast
  GI50: 3.64 µM
  TGI: 7.8 µM
UACC-62 melanoma
  GI50: 2.15 µM
  TGI: 6.53 µM
RXF 393 renal
  GI50: 3.39 µM
  TGI: 7.93 µM
SK-MEL-5 melanoma
  GI50: 1.26 µM
  TGI: 4.64 µM
U251 CNS
  GI50: 3.9 µM
  TGI: 8.3 µM
